Test results published in patent US20100184094A1, “USE OF MDCK CELLS IN THE EVALUATION OF CHOLESTEROL MODULATORS” (priority 2007, published 2010).

Target: dog NPC1L1 (Canis lupus familiaris, UniProt A0A8I3RZG1)
Assay: [3H]AS binding to dog NPC1L1 transiently expressed in TsA201 cells
Conditions: for IC50: 4.65 nM [3H]AS, 4 h, 37° C., read-out: IC50 inhibition of [3H]AS binding; for Ki: dog NPC1L1/TsA201 cells, read-out: Ki (competition with [3H]AS)
Method: rNPC1L1/HEK293 and TsA201 cells were seeded at a density of 10,000 cells per well in 96-well poly-D-lysine coated plates and cells were allowed to attach for approximately 18 h at 37° C. TsA201 cells were subsequently transfected with dog NPC1L1/pcDNA5/FRT according to the manufacturer's instructions (Roche) and incubated for 3 days at 37° C. MDCKII-derived, LLC-PKI, HepG2, or CaCo-2 cells were seeded at a density of 25,000 cells per well in 96-well tissue culture treated plates, and cells were allowed to attach and differentiate for approximately 72 h at 37° C., except for CaCo-2 cells where differentiation took approximately 14 days at 37° C. […] Duplicate samples were averaged for each experimental point. […] Dissociation kinetics were determined by addition of 100 μM EZE-gluc, and incubating for different periods of time. Nonspecific binding was defined in the presence of 100 μM EZE-gluc. At the end of the incubation period, cells were washed twice with 200 μl of pre-warmed DMEM to separate bound from free ligand, 1% SDS was added to the wells followed by 5 ml of Scintillant, and radioactivity associated with cells was determined using a β-counter. […] Thereafter, plates were placed on ice and cells were washed twice with ice-cold PBS, followed by ice-cold acid wash with DMEM, pH 3.5, for 1, 5 or 15 minutes. […] For Transwell experiments, MDCKII cells were seeded at 200,000 cells/well in a 24-well plate and incubated for 3 days at 37° C. […] Thereafter, both apical and basolateral compartments were washed three times with PBS, and the Transwell filter was cut out and its associated radioactivity determined using afi-counter. Data from saturation, competition and ligand dissociation experiments were analyzed as described in the literature; see, Priest, et al., 2004 Biochemistry 43:9866-9876; Knaus et al., 1995 Biochemistry 34:13627-13634. The association rate, k1, was determined by employing the pseudo-first-order rate equation k1=kobs([LR]e/[L][LR]max)) where [LR]max is the concentration of the complex at equilibrium, [L] is the concentration of ligand, [LR]max is the total receptor concentration, kobs is the slope of the pseudo-first order plot, ln([LR]e/([LR]e−[LR]t)) versus time, and [LR]t is the receptor-ligand complex at one given time point t.
To further validate this statement, cloned dog NPC1L1 was transiently expressed in TsA201 cells and binding of [^3]AS to these cells was then characterized (FIG. 5 and Table 1).

Sequence of dog NPC1L1 (A0A8I3RZG1 entry or part of it): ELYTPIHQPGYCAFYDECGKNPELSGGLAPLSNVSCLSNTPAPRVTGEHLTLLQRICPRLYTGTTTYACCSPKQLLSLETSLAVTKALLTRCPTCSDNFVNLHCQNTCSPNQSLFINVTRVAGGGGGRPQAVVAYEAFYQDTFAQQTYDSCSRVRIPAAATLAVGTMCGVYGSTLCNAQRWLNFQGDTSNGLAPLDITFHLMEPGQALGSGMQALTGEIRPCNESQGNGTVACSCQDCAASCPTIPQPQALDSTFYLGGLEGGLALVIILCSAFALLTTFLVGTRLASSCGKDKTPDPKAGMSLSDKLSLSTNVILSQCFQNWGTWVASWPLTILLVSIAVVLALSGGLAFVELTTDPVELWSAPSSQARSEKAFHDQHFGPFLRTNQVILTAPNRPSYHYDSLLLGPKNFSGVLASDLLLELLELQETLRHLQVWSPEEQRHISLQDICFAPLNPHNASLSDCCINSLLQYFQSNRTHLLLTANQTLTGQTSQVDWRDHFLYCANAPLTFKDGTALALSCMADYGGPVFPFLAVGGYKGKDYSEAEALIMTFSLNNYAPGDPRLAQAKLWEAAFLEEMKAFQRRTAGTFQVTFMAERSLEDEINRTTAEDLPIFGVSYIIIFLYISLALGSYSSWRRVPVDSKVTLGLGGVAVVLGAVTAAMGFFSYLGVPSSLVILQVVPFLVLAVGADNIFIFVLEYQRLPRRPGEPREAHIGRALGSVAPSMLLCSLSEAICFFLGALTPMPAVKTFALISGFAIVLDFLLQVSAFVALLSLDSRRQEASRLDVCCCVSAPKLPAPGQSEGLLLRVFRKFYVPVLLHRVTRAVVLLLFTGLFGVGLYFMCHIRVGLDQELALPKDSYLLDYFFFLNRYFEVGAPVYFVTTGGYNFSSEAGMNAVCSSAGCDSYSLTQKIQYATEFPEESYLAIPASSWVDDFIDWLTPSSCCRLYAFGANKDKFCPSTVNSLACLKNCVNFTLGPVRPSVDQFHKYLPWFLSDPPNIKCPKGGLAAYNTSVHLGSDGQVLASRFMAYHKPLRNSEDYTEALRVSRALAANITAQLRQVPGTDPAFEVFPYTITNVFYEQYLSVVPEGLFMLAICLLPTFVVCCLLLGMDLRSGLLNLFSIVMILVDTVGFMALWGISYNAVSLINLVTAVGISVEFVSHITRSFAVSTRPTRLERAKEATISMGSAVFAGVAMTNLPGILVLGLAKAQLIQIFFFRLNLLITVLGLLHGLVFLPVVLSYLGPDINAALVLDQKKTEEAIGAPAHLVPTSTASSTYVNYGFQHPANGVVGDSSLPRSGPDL

Row | Compound | IC50 [µM] | Ki [µM]
1 | O=C(O)[C@H]1O[C@@H](Oc2ccc([C@@H]3[C@@H](CC[C@H](O)c4ccc(F)cc4)C(=O)N3c3ccc(F)cc3)cc2)[C@H](O)[C@@H](O)[C@@H]1O [EZE-gluc, ezetimibe glucuronide] | 0.027 | 0.00551 ± 0.00152
2 | COC(=O)[C@H]1O[C@@H](Oc2ccc([C@@H]3[C@@H](CC[C@H](O)c4ccc(F)cc4)C(=O)N3c3ccc(C#CCNS(C)(=O)=O)cc3)cc2)[C@H](O)[C@@H](O)[C@@H]1O [PS, 4-[(2S,3R)-3-[(3S)-3-(4-fluorophenyl)-3-hydroxypropyl]-1-(4-{3-[(methylsulfonyl)amino]prop-1-yn-1-yl}phenyl)-4-oxoazetidin-2-yl]phenyl methyl-β-D-glucopyranosiduronate] | 0.00373 | 0.00097 ± 8e-05
3 | O=C1[C@H](CC[C@H](O)c2ccc(F)cc2)[C@@H](c2ccc(O)cc2)N1c1ccc(F)cc1 [EZE, Ezetimibe] | 0.111 | 0.0215 ± 0.00756
